In the NIST ThermoML archive (doi:10.1016/j.jct.2015.12.025):
± gives the expanded uncertainty stated by the source.

Test: xn = mol fraction of the nth substance listed
Conditions: 102 kPa, Liquid, Vibrating tube method

C[Si]1(CCC(F)(F)F)O[Si](C)(CCC(F)(F)F)O[Si](C)(CCC(F)(F)F)O1 (stereo not given) + O=[N+]([O-])c1ccccc1
mass density [kg/m3]
Conditions | 308.15 K | 313.15 K | 318.15 K | 323.15 K
x1 = 0.05 | 1199.58 ± 1 | 1194.53 ± 1 | 1189.25 ± 1 | 1184.09 ± 1
x1 = 0.0999 | 1207.93 ± 1 | 1202.66 ± 1 | 1197.26 ± 1 | 1191.9 ± 1
x1 = 0.1499 | 1214.25 ± 1 | 1208.83 ± 1 | 1203.23 ± 1 | 1197.73 ± 1
x1 = 0.1919 | 1218.36 ± 1 | 1212.79 ± 1 | 1207.17 ± 1 | 1201.58 ± 1
x1 = 0.2499 | 1222.85 ± 1 | 1217.11 ± 1 | 1211.37 ± 1 | 1205.62 ± 1
x1 = 0.2999 | 1225.81 ± 1 | 1220.01 ± 1 | 1214.12 ± 1 | 1208.26 ± 1
x1 = 0.3501 | 1228.12 ± 1 | 1222.19 ± 1 | 1216.28 ± 1 | 1210.32 ± 1
x1 = 0.3999 | 1229.99 ± 1 | 1224 ± 1 | 1218.01 ± 1 | 1211.97 ± 1
x1 = 0.4499 | 1231.5 ± 1 | 1225.36 ± 1 | 1219.29 ± 1 | 1213.19 ± 1
x1 = 0.5008 | 1232.67 ± 1 | 1226.56 ± 1 | 1220.4 ± 1 | 1214.21 ± 1
x1 = 0.55 | 1233.65 ± 1 | 1227.39 ± 1 | 1221.21 ± 1 | 1215 ± 1
x1 = 0.6001 | 1234.37 ± 1 | 1228.07 ± 1 | 1221.84 ± 1 | 1215.54 ± 1
x1 = 0.6501 | 1234.9 ± 1 | 1228.58 ± 1 | 1222.33 ± 1 | 1216 ± 1
x1 = 0.6997 | 1235.32 ± 1 | 1229.04 ± 1 | 1222.69 ± 1 | 1216.31 ± 1
x1 = 0.75 | 1235.76 ± 1 | 1229.34 ± 1 | 1222.98 ± 1 | 1216.56 ± 1
x1 = 0.8002 | 1236.01 ± 1 | 1229.55 ± 1 | 1223.17 ± 1 | 1216.72 ± 1
x1 = 0.8498 | 1236.19 ± 1 | 1229.72 ± 1 | 1223.28 ± 1 | 1216.78 ± 1
x1 = 0.9002 | 1236.26 ± 1 | 1229.82 ± 1 | 1223.34 ± 1 | 1216.83 ± 1
x1 = 0.9492 | 1236.47 ± 1 | 1229.88 ± 1 | 1223.44 ± 1 | 1216.88 ± 1
x1 = 1 | 1236.63 ± 1 | 1230.05 ± 1 | 1223.55 ± 1 | 1216.99 ± 1
